In the NIST ThermoML archive (doi:10.1021/je0340248):

Assay: xn = mol fraction of the nth substance listed
Conditions: 101 kPa, Liquid

OCCOCCOCCO [triethylene glycol] + CCCCOC(C)=O
Conditions	mass density, 298.15 K [kg/m3]	mass density, 303.15 K [kg/m3]	mass density, 308.15 K [kg/m3]	mass density, 313.15 K [kg/m3]	speed of sound, 298.15 K [m/s]	speed of sound, 308.15 K [m/s]	viscosity, 298.15 K [mPa·s]	viscosity, 308.15 K [mPa·s]
x2 = 0.0452	1108.89	1105.14	1101.13	1098.6	1586	1559	31.2	18.96
x2 = 0.1515	1083.49	1079.63	1075.41	1072.59	1524	1498	24.06	14.16
x2 = 0.2488	1060.06	1056.08	1051.65	1048.53	1470	1446	18.29	10.62
x2 = 0.3493	1035.73	1031.63	1026.98	1023.57	1420	1395	13.28	7.731
x2 = 0.4464	1012.14	1007.94	1003.07	999.41	1375	1350	9.402	5.575
x2 = 0.4953	1000.24	995.98	991.02	987.24	1355	1329	7.798	4.694
x2 = 0.5495	987.03	982.72	977.64	973.75	1334	1307	6.273	3.856
x2 = 0.6493	962.66	958.25	952.97	948.88	1298	1267	4.084	2.642
x2 = 0.7488	938.29	933.77	928.31	924.03	1265	1232	2.566	1.776
x2 = 0.8515	913.02	908.37	902.74	898.24	1233	1197	1.528	1.153
x2 = 0.9421	890.6	885.8	880.04	875.29	1207	1168	0.936	0.774
